Source: article PMC11571207, “Stereorandomized Oncocins with Preserved Ribosome Binding and Antibacterial Activity” (Journal of Medicinal Chemistry, 2024)
Like-named read-outs stand apart in the source and are kept apart here. Non-standard residues stand in square brackets, D forms with d. Residues, ends and D or L forms follow the SMILES beside them. Nleu = CC(C)CNCC(=O)O; Nlys = NCCCCNCC(=O)O

What was measured:
P. aeruginosa PAO1 = experiment: microbe, parasite or virus in culture; conditions: for MIC P. aeruginosa PAO1: supplement CSV
In short: (§1)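 Read-out was visible growth after MTT addition, the MIC being the lowest inhibitory peptide concentration. Bacteria grown to log phase in LB were exposed in MH medium to peptide from 64 μg/mL in twofold dilutions for 15-18h at 37°C.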

A. baumannii ATCC19606 = experiment: microbe, parasite or virus in culture; conditions: for MIC A. baumannii ATCC19606: supplement CSV
In short: as §1

K. pneumoniae NCTC 418 = experiment: microbe, parasite or virus in culture
In short: as §1

S. aureus COL (MRSA) = experiment: microbe, parasite or virus in culture; conditions: for MIC S. aureus COL (MRSA): supplement CSV
In short: as §1

human red blood cells [1] = conditions: red cells of human, 6 h
E. coli W3110 = experiment: microbe, parasite or virus in culture; conditions: for MIC E. coli W3110: supplement CSV
In short: as §1

[2] = tested on: P. aeruginosa PA14 4.18 (pmrB); conditions: for MIC P. aeruginosa PA14 4.18: supplement CSV
[3] = tested on: P. aeruginosa PA14 4.13 (phoQ); conditions: for MIC P. aeruginosa PA14 4.13: supplement CSV
human red blood cells [4] = experiment: Hemolysis assay, minimum hemolytic concentration
K. pneumoniae OXA-48 = experiment: microbe, parasite or virus in culture; conditions: for MIC K. pneumoniae OXA-48: supplement CSV
Procedure: (§2) Minimum inhibitory concentration assay
(§3) Antimicrobial activity was assayed against P. aeruginosa PAO1, K. pneumoniae NCTC418, E. coli W3110, A. baumannii ATCC 19606, methicillin-resistant S. aureus COL (MRSA), and for selected peptides on P. aeruginosa PA14 and the polymyxin-B-resistant derivative PA14 2P4, as well as the clinical isolates ZEM-1A and ZEM9A, K. pneumoniae OXA-48, S. aureus Newman, Enterobacter cloacae and Burkholderia cenocepacia. The minimal inhibitory concentration (MIC) was determined by using broth microdilution method. A colo ny of bacteria was picked and grown in Luria-Bertani (LB) medium overnight at 37°C. For E. coli BW25113 sbmA::kan the medium was supplemented with 25 mg/L of kanamycin. The next day, the culture was then regrown in LB medium to log phase (OD600 = 0.6 to 0.8), which lasted approximately 4 h, and diluted to an OD600 of 0.022 in the desired medium. Stock solutions of 1 mg/mL of the samples were prepared in sterilized milliQ water and diluted to the beginning concentration of 64 μg/mL in 300 μL Mueller Hinton (MH)-medium. The diluted samples were added to first well of 96-well microtiter plate (TPP, untreated, Faust Laborbedarf, AG, Schaffhausen) and diluted serially by ½. Finally, 4 μL of the bacterial suspension was inoculated into the sample solutions (150 μL/well) with a final inoculation of about 5∙10^5 CFU/mL. The plates were then incubated at 37°C for 15-18h. For each assay, sterility (broth only) and growth control (broth with bacterial inoculum, without antibiotics) were checked with two columns in the plate. The next day, 15 μL of 3-(4,5-dimethylthiazol-2-yl)-2,5-diphenyltetrazolium bromide (MTT) was added to each well of the plate, such a way that MIC was defined as the lowest concentration of the peptide that inhibited visible growth of the tested

P. aeruginosa ZEM-1A = experiment: microbe, parasite or virus in culture
Procedure: as §2, §3

E. cloacae = experiment: microbe, parasite or virus in culture; conditions: for MIC E. cloacae: supplement CSV
Procedure: as §2, §3

P. aeruginosa PA14 = experiment: microbe, parasite or virus in culture; conditions: for MIC P. aeruginosa PA14: supplement CSV
Procedure: as §2, §3

P. aeruginosa ZEM9A = experiment: microbe, parasite or virus in culture; conditions: for MIC P. aeruginosa ZEM9A: supplement CSV
Procedure: as §2, §3

[5] = tested on: P. aeruginosa PA14 2P4 (pmrB); experiment: microbe, parasite or virus in culture; conditions: for MIC P. aeruginosa PA14 2P4: supplement CSV
Procedure: as §2, §3

[6] = supplement CSV, 12.5% MH pH 7.4
[7] = polymyxin B resistant strain, 12.5% MHB pH 7.4, 16–20 h at 37 °C
[8] = polymyxin B resistant strain, full MHB pH 7.4, 16–20 h at 37 °C

CC(C)C[C@H](NC(=O)CN(CC(C)C)C(=O)[C@H](CC(C)C)NC(=O)CN(CCCCN)C(=O)[C@H](CC(C)C)NC(=O)CN(CC(C)C)C(=O)[C@H](CCCCN)NC(=O)CN(CC(C)C)C(=O)[C@H](CC(C)C)NC(=O)CN(CCCCN)C(=O)[C@@H](N)CCCCN)C(N)=O [EB9, reference compound] (H-K[Nlys]L[Nleu]K[Nleu]L[Nlys]L[Nleu]L-NH2; N-terminus assumed)
>32 / 32 μg/mL: MIC S. aureus, 12.5% MHB (S. aureus COL (MRSA); COL) | MIC S. aureus, Full MHB (S. aureus COL (MRSA); COL)
4 µg/mL: MIC P. aeruginosa, 12.5% MHB (P. aeruginosa PAO1; PAO1)
>32 µg/mL: MIC K. pneumoniae NCTC418 (K. pneumoniae NCTC 418; NCTC 418, 4 h, pH 7.4)
16 µg/mL: MIC A. baumannii, 12.5% MHB (A. baumannii ATCC19606; ATCC19606)
> 32 µg/mL: MIC A. baumannii, Full MHB (A. baumannii ATCC19606; ATCC19606)
32 µg/mL: MIC P. aeruginosa, Full MHB (P. aeruginosa PAO1; PAO1)
>32 / >32 μg/mL: MIC K. pneumoniae, 12.5% MHB (K. pneumoniae NCTC 418; NCTC 418) | MIC K. pneumoniae, Full MHB (K. pneumoniae NCTC 418; NCTC 418)
>2000 µg/mL: MHC human red blood cells (human red blood cells [1])

CC[C@@H](C)[C@@H](NC(=O)[C@@H](CCCNC(=N)N)NC(=O)[C@H](CCCNC(=N)N)NC(=O)[C@@H]1CCCN1C(=O)[C@@H]1CCCN1C(=O)[C@H](CCCNC(=N)N)NC(=O)[C@@H]1CCCN1C(=O)[C@H](CCCNC(=N)N)NC(=O)[C@@H]1CCCN1C(=O)[C@H](CC(C)C)NC(=O)[C@H](Cc1ccc(O)cc1)NC(=O)[C@@H]1CCCN1C(=O)[C@@H]1CCCN1C(=O)[C@H](CCCCN)NC(=O)[C@H](CC(=O)O)NC(=O)[C@@H](N)C(C)C)C(=O)N[C@H](Cc1ccc(O)cc1)C(=O)N[C@H](CC(N)=O)C(=O)N[C@H](CCCNC(=N)N)C(N)=O [D5Cterm-Onc] (H-VDKPPYLPRPRPPR[dR][dI][dY][dN][dR]-NH2)
2 µg/mL: MIC E. coli, 12.5% MHB (E. coli W3110; E. coli W3110, 12.5% Müller–Hinton medium, 16–20 h at 37 °C, broth microdilution) | MIC E. coli W3110 (E. coli W3110; 12.5% MH pH 7.4) | MIC K. pneumoniae, 12.5% MHB (K. pneumoniae NCTC 418; K. pneumoniae NCTC 418, 12.5% Müller–Hinton medium, 16–20 h at 37 °C) | MIC K. pneumoniae NCTC418 (K. pneumoniae NCTC 418; [6]) | MIC P. aeruginosa ZEM9A, 12.5% MHB (P. aeruginosa ZEM9A; clinical isolate, 12.5% MHB pH 7.4, 16–20 h at 37 °C) | MIC P. aeruginosa ZEM9A (P. aeruginosa ZEM9A; 12.5% MH pH 7.4) | MIC P. aeruginosa PA14 2P4 (pmrB), 12.5% MHB [5, 7] | MIC P. aeruginosa PA14 2P4 ([5]; 12.5% MH pH 7.4)
8 µg/mL: MIC P. aeruginosa, 12.5% MHB (P. aeruginosa PAO1; P. aeruginosa PAO1, 12.5% Müller–Hinton medium, 16–20 h at 37 °C) | MIC P. aeruginosa PAO1 (P. aeruginosa PAO1; 12.5% MH pH 7.4) | MIC A. baumannii, 12.5% MHB (A. baumannii ATCC19606; A. baumannii ATCC19606, 12.5% Müller–Hinton medium, 16–20 h at 37 °C) | MIC A. baumannii ATCC19606 (A. baumannii ATCC19606; 12.5% MH pH 7.4) | MIC P. aeruginosa PA14 4.18 (pmrB), 12.5% MHB [2, 7] | MIC P. aeruginosa PA14 4.18 ([2]; 12.5% MH pH 7.4) | MIC P. aeruginosa PA14 4.13 (phoQ), 12.5% MHB [3, 7] | MIC P. aeruginosa PA14 4.13 ([3]; 12.5% MH pH 7.4) | MIC P. aeruginosa PA14, 12.5% MHB (P. aeruginosa PA14; 12.5% MHB pH 7.4, 16–20 h at 37 °C, two different duplicate MIC determinations) | MIC P. aeruginosa PA14 (P. aeruginosa PA14; 12.5% MH pH 7.4)
64 µg/mL: MIC P. aeruginosa, Full MHB (P. aeruginosa PAO1; P. aeruginosa PAO1, full Müller–Hinton medium, 16–20 h at 37 °C) | MIC P. aeruginosa PAO1 (P. aeruginosa PAO1; full MH pH 7.4) | MIC A. baumannii, Full MHB (A. baumannii ATCC19606; A. baumannii ATCC19606, full Müller–Hinton medium, 16–20 h at 37 °C) | MIC A. baumannii ATCC19606 (A. baumannii ATCC19606; full MH pH 7.4) | MIC P. aeruginosa PA14 4.18 (pmrB), full MHB [2, 8] | MIC P. aeruginosa PA14 4.18 ([2]; full MH pH 7.4) | MIC P. aeruginosa PA14 4.13 (phoQ), full MHB [3, 8] | MIC P. aeruginosa PA14 4.13 ([3]; full MH pH 7.4)
1 µg/mL: MIC E. cloacae, 12.5% MHB (E. cloacae; 12.5% MHB pH 7.4, 16–20 h at 37 °C) | MIC E. cloacae (E. cloacae; 12.5% MH pH 7.4)
>1000 µg/mL: Haemolysis on hRBC, MHC (human red blood cells [4]; 2.5% human red blood cells (final) in 10 mM phosphate, 150 mM NaCl, pH 7.4, 25 °C, 4 h, visual inspection) | MHC human red blood cells (human red blood cells [4]; supplement CSV)
4 to 8 µg/mL: MIC P. aeruginosa ZEM-1A, 12.5% MHB (P. aeruginosa ZEM-1A; clinical isolate, 12.5% MHB pH 7.4, 16–20 h at 37 °C, cells marked c: single measurement (in duplicates)) | MIC P. aeruginosa ZEM-1A (P. aeruginosa ZEM-1A; [6])
32 µg/mL: MIC S. aureus, 12.5% MHB (S. aureus COL (MRSA); S. aureus COL (MRSA), 12.5% Müller–Hinton medium, 16–20 h at 37 °C) | MIC S. aureus COL (MRSA) (S. aureus COL (MRSA); 12.5% MH pH 7.4) | MIC K. pneumoniae OXA-48, full MHB (K. pneumoniae OXA-48; carbapenem-resistant, full MHB pH 7.4, 16–20 h at 37 °C) | MIC K. pneumoniae OXA-48 (K. pneumoniae OXA-48; full MH pH 7.4) | MIC E. cloacae, full MHB (E. cloacae; full MHB pH 7.4, 16–20 h at 37 °C) | MIC E. cloacae (E. cloacae; full MH pH 7.4)
>64 µg/mL: MIC S. aureus COL (MRSA) (S. aureus COL (MRSA); full MH pH 7.4) | MIC P. aeruginosa PA14 (P. aeruginosa PA14; full MH pH 7.4) | MIC P. aeruginosa ZEM9A (P. aeruginosa ZEM9A; full MH pH 7.4) | MIC P. aeruginosa PA14 2P4 ([5]; full MH pH 7.4)
4 µg/mL: MIC E. coli, Full MHB (E. coli W3110; E. coli W3110, full Müller–Hinton medium, 16–20 h at 37 °C, broth microdilution) | MIC E. coli W3110 (E. coli W3110; full MH pH 7.4) | MIC K. pneumoniae, Full MHB (K. pneumoniae NCTC 418; K. pneumoniae NCTC 418, full Müller–Hinton medium, 16–20 h at 37 °C) | MIC K. pneumoniae NCTC418 (K. pneumoniae NCTC 418; supplement CSV, full MH pH 7.4) | MIC K. pneumoniae OXA-48, 12.5% MHB (K. pneumoniae OXA-48; carbapenem-resistant, 12.5% MHB pH 7.4, 16–20 h at 37 °C) | MIC K. pneumoniae OXA-48 (K. pneumoniae OXA-48; 12.5% MH pH 7.4)
> 64 µg/mL: MIC S. aureus, Full MHB (S. aureus COL (MRSA); S. aureus COL (MRSA), full Müller–Hinton medium, 16–20 h at 37 °C) | MIC P. aeruginosa PA14, full MHB (P. aeruginosa PA14; full MHB pH 7.4, 16–20 h at 37 °C, two different duplicate MIC determinations) | MIC P. aeruginosa ZEM9A, full MHB (P. aeruginosa ZEM9A; clinical isolate, full MHB pH 7.4, 16–20 h at 37 °C) | MIC P. aeruginosa PA14 2P4 (pmrB), full MHB [5, 8]
